Assay results taken from patent US20050256152A1, “Salt of a sulfonic acid containing clopidogrel and use thereof for the production of pharmaceutical formulations” (priority 2003, published 2005).
Structures can show the parent of a compound that is named as a salt. Where two headings read alike, the source gives them in different places.

What was measured:
[1] = Procedure: (§1) 4.1 The stress stability of various salts of the clopidogrel was tested under different conditions. […] The following tests were conducted:
50 mg of the salt concerned are weighed into a volumetric flask (100 ml) and held at 80° C. for 20 hours. After the end of each experiment and cooling to room temperature, the mobile phase is added up to 100 ml.
(§2) The result is determined by means of HPLC.
(§3) In all cases, the HPLC measurements were carried out under the following conditions with UV detection: […]

[2] = 75% relative humidity
[3] = for stress stability result by HPLC, alkaline: 2 ml 1N NaOH, 5 hours
Procedure: as §1
Then the flask is held either at room temperature for 5 hours or at 80° C. for 5 hours.
as §2, §3

[4] = tables 1 to 4
[5] = 5 hours
Procedure: as §1
(§4) 50 mg of the salt concerned are weighed into a volumetric flask (100 ml) and 2 ml of 3% H2O2 added. Then the flask is kept either at room temperature for 5 hours or at 80° C. for 5 hours. After the end of each experiment and, optionally, cooling to room temperature, the mobile phase is added up to 100 ml.
as §2, §3

[6] = 40 and 60° C., 75% relative humidity, 15 days, FIG. 4
[7] = 2 ml water, 5 hours
Procedure: as §1
as §4, with “water” for “3% H2O2”
as §2, §3

[8] = 2 ml 1N HCl, 5 hours
Procedure: as §1
Then the flask is kept either at room temperature for 5 hours or at 80° C. for 5 hours.
as §2, §3

In the case of `COC(=O)[C@H](c1ccccc1Cl)N1CCc2sccc2C1` [Clopidogrel Hydrogen Sulfate, clopidogrel hydrogen sulfate, reference compound], the “stress stability result by HPLC, heat” value ([1]; 20 h) was 0.31%.

In the case of `COC(=O)[C@H](c1ccccc1Cl)N1CCc2sccc2C1` [Clopidogrel Hydrochloride, clopidogrel hydrochloride, reference compound], the “content after 15 days (initial value normalised to 100%)” value ([2]; 40° C.) was 93.66%, the “content after 15 days (initial value normalised to 100%)” value ([2]; 60° C.) was 42.54% and the “stress stability result by HPLC, heat” value ([1]; 20 h) was 32.43%.

In the case of Clopidogrel mesylate, the “content after 15 days (initial value normalised to 100%)” value ([2]; 40° C.) was 97.56% and the “content after 15 days (initial value normalised to 100%)” value ([2]; 60° C.) was 17.11%.

For `COC(=O)[C@H](c1ccccc1Cl)N1CCc2sccc2C1.O=S(=O)(O)c1ccccc1` [Clopidogrel Benzene Sulfonate (Crystalline)], the “stress stability result by HPLC, alkaline” value ([3]; 80° C.) was 28.05%, the “stress stability result by HPLC, alkaline” value ([3]; room temperature) was 0.14% and the “stability in comparison with other salts (stress tests)” value [4] was “even more stable than clopidogrel hydrogen sulfate”. The “stress stability result by HPLC, oxidising” value ([5]; 2 ml 3% H2O2, 80° C.) was 3.98%, the “stress stability result by HPLC, oxidising” value ([5]; 2 ml 3% H2O2, room temperature) was 0.13% and the “stress stability result by HPLC, heat” value ([1]; solid salt, 80° C., 20 hours) was 4.52%. The “stability (decrease of content), compared with hydrogen sulfate and hydrochloride” value [6] was “best stability values”, the “stress stability result by HPLC, neutral” value ([7]; 80° C.) was 4.18% and the “stress stability result by HPLC, neutral” value ([7]; room temperature) was 0.19%. For the same molecule, the “stress stability result by HPLC, acidic” value ([8]; 80° C.) was 2.76% and the “stress stability result by HPLC, acidic” value ([8]; room temperature) was 0.14%.

In the case of `COC(=O)[C@H](c1ccccc1Cl)N1CCc2sccc2C1.O=S(=O)(O)c1ccccc1` [Clopidogrel Benzene Sulfonate (Amorphous)], the “stress stability result by HPLC, alkaline” value ([3]; 80° C.) was 25.04%, the “stress stability result by HPLC, alkaline” value ([3]; room temperature) was 0.64% and the “stability under alkaline conditions in comparison with the hydrogen sulfate and hydrochloride salts” value ([3]; alkaline conditions) was “considerably increased stability”. The “stress stability result by HPLC, oxidising” value ([5]; 2 ml 3% H2O2, 80° C.) was 2.94%, the “stress stability result by HPLC, oxidising” value ([5]; 2 ml 3% H2O2, room temperature) was 0.83% and the “stress stability result by HPLC, heat” value ([1]; solid salt, 80° C., 20 hours) was 11.52%. The “stress stability result by HPLC, neutral” value ([7]; 80° C.) was 3.01%, the “stress stability result by HPLC, neutral” value ([7]; room temperature) was 0.85% and the “stress stability result by HPLC, acidic” value ([8]; 80° C.) was 2.36%. The “stress stability result by HPLC, acidic” value ([8]; room temperature) was 0.64%.

With Clopidogrel besylate the “content after 15 days (initial value normalised to 100%)” value ([2]; 40° C.) was 103.32% and the “content after 15 days (initial value normalised to 100%)” value ([2]; 60° C.) was 66.48%.
